In paper PMC7581224 (Journal of medicinal chemistry, 2020):

What was measured:
BoNT/A = conditions: mouse, in vivo; cited from earlier work
MMPs = format: biochemical

| Structure (SMILES) | covalent inhibition (MMPs) | cellular toxicity (HEK293 cells) | also measured |
| --- | --- | --- | --- |
| O=C(/C=C/c1ccc(Cl)cc1Cl)NO [Compound 7, 2,4-dichlorocinnamic hydroxamic acid] | – | – | rescued mice (BoNT/A): 16%; small molecule-associated toxicity (BoNT/A): no small molecule-associated toxicity |
| CS(=O)(=O)SCCCCCN(O)C(=O)/C=C/c1ccc(Cl)cc1Cl [Compound 31, (E)-S-(5-(3-(2,4-dichlorophenyl)-N-hydroxyacrylamido)pentyl) methanesulfonothioate] | – | – | IC50 (HEK293 cells): did not inhibit cells to the extent that an IC50 value could be calculated |
| CS(=O)(=O)SCCCCCCN(O)C(=O)/C=C/c1ccc(Cl)cc1Cl [Compound 32, (E)-S-(6-(3-(2,4-dichlorophenyl)-N-hydroxyacrylamido)hexyl) methanesulfonothioate] | no covalent inhibition was observed | – | – |
| CS(=O)(=O)SCCCNC(=O)CC(CC(=O)NO)c1ccc(Cl)cc1Cl (stereo not drawn) [Compound 53, S-(3-(3-(2,4-dichlorophenyl)-5-(hydroxyamino)-5-oxopentanamido)propyl) methanesulfonothioate] | no covalent inhibition was observed | did not exhibit cellular toxicity | MMP inhibition (MMPs): inhibits MMPs significantly less than 32 |
| CCCCCNC(=O)CC(CC(=O)NO)c1ccc(Cl)cc1Cl (centres unmarked) [Compound 59, 3-(2,4-dichlorophenyl)-N^1-hydroxy-N^5-pentylpentanediamide] | – | did not exhibit cellular toxicity | – |
